Results taken from publication PMC3731320, “Identification of Benzimidazole Diamides as Selective Inhibitors of the Nucleotide-Binding Oligomerization Domain 2 (NOD2) Signaling Pathway” (PLoS ONE, 2013).

tested on: NOD2; assay: MDP-stimulated IL-8 release in 293/hNOD2 cells (HTRF); assay type: cell-based, human; conditions: Homo sapiens; MDP-stimulated IL-8 production assay in 293/hNOD2 cells; Figures 4 and 5; read-out: NOD2 IC50
Method: After 24 hours the amount of IL-8 secreted into the medium was determined by homogeneous time resolved fluorescence (HTRF) assay by the direct addition of a 1:1 mix of europium cryptate and XL665-conjugated anti-IL-8 antibodies according to the manufacturer's instructions (Cisbio).

| SMILES | IC50 [µM] |
| --- | --- |
| CN(CCc1nc2ccccc2n1CC(=O)Nc1ccc2occc2c1)C(=O)c1ccccc1 [Compound 36, N-(2-(1-(2-(benzofuran-5-ylamino)-2-oxoethyl)-1H-benzo[d]imidazol-2-yl)ethyl)-N-methylbenzamide] | 1.3 |
| Cc1ccccc1C(=O)NCCc1nc2ccccc2n1CC(=O)Nc1ccc2c(c1)CCC2 [Compound 17, N-(2-(1-(2-((2,3-dihydro-1H-inden-5-yl)amino)-2-oxoethyl)-1H-benzo[d]imidazol-2-yl)ethyl)-2-methylbenzamide] | 4.7 ± 0.5 |
| CN(C(=O)Cn1c(CCNC(=O)c2ccccc2)nc2ccccc21)c1ccc2c(c1)CCC2 [Compound 31, N-(2-(1-(2-((2,3-dihydro-1H-inden-5-yl)(methyl)amino)-2-oxoethyl)-1H-benzo[d]imidazol-2-yl)ethyl)benzamide] | 20 |
| O=C(Cn1c(CCNC(=O)c2ccccc2)nc2ccccc21)Nc1ccc2c(c1)NCC2 [Compound 12, N-(2-(1-(2-(indolin-6-ylamino)-2-oxoethyl)-1H-benzo[d]imidazol-2-yl)ethyl)benzamide] | > 50 |
| O=C(Cn1c(CCNC(=O)c2ccccc2)nc2ccccc21)Nc1ccc(Oc2ccccc2)cc1 [Compound 13, N-(2-(1-(2-oxo-2-((4-phenoxyphenyl)amino)ethyl)-1H-benzo[d]imidazol-2-yl)ethyl)benzamide] | > 50 |
| CN(CCc1nc2ccccc2n1CC(=O)Nc1ccc2ccccc2c1)C(=O)c1ccccc1 [Compound 32, N-methyl-N-(2-(1-(2-(naphthalen-2-ylamino)-2-oxoethyl)-1H-benzo[d]imidazol-2-yl)ethyl)benzamide] | 0.2 ± 0.01 |
| O=C(Cn1c(CCNC(=O)c2ccccc2)nc2ccc(Cl)cc21)Nc1ccc2c(c1)CCC2 [Compound 24, N-(2-(6-chloro-1-(2-((2,3-dihydro-1H-inden-5-yl)amino)-2-oxoethyl)-1H-benzo[d]imidazol-2-yl)ethyl)benzamide] | 4.2 ± 0.1 |
| CN(CCc1nc2ccccc2n1CC(=O)N(C)c1ccc2c(c1)CCC2)C(=O)c1ccccc1 [Compound 30, N-(2-(1-(2-((2,3-dihydro-1H-inden-5-yl)(methyl)amino)-2-oxoethyl)-1H-benzo[d]imidazol-2-yl)ethyl)-N-methylbenzamide] | 17 ± 2 |
| Cc1ccc(C(=O)NCCc2nc3ccccc3n2CC(=O)Nc2ccc3c(c2)CCC3)cc1 [Compound 18, N-(2-(1-(2-((2,3-dihydro-1H-inden-5-yl)amino)-2-oxoethyl)-1H-benzo[d]imidazol-2-yl)ethyl)-4-methylbenzamide] | > 50 |
| CN(CCc1nc2ccccc2n1CC(=O)Nc1ccc(Cl)c(Cl)c1)C(=O)c1ccccc1 [Compound 35, N-(2-(1-(2-((3,4-dichlorophenyl)amino)-2-oxoethyl)-1H-benzo[d]imidazol-2-yl)ethyl)-N-methylbenzamide] | 0.9 ± 0.2 |
| O=C(Cn1c(CCNC(=O)c2ccccc2)nc2ccccc21)Nc1ccc(OCc2ccccc2)cc1 [Compound 11, N-(2-(1-(2-((4-(benzyloxy)phenyl)amino)-2-oxoethyl)-1H-benzo[d]imidazol-2-yl)ethyl)benzamide] | > 50 |
| O=C(Cn1c(CCNC(=O)c2cccc(C(F)(F)F)c2)nc2ccccc21)Nc1ccc2c(c1)CCC2 [Compound 20, N-(2-(1-(2-((2,3-dihydro-1H-inden-5-yl)amino)-2-oxoethyl)-1H-benzo[d]imidazol-2-yl)ethyl)-3-(trifluoromethyl)benzamide] | > 50 |
| O=C(Cn1c(CCNC(=O)c2ccccc2)nc2ccccc21)Nc1ccc(Cl)c(Cl)c1 [Compound 8, N-(2-(1-(2-(3,4-dichlorophenylamino)-2-oxoethyl)-1H-benzo[d]imidazol-2-yl)ethyl)benzamide] | 3.3 ± 2.1 |
| CC(C)c1cccc(NC(=O)Cn2c(CCNC(=O)c3ccccc3)nc3ccccc32)c1 [Compound 3, N-(2-(1-(2-((3-isopropylphenyl)amino)-2-oxoethyl)-1H-benzo[d]imidazol-2-yl)ethyl)benzamide] | 0.8 ± 0.5 |
| O=C(Cn1c(CCNC(=O)c2ccccc2Cl)nc2ccccc21)Nc1ccc2c(c1)CCC2 [Compound 16, 2-chloro-N-(2-(1-(2-((2,3-dihydro-1H-inden-5-yl)amino)-2-oxoethyl)-1H-benzo[d]imidazol-2-yl)ethyl)benzamide] | 3.8 ± 1.4 |
| Cc1ccc(NC(=O)Cn2c(CCNC(=O)c3ccccc3)nc3ccccc32)cc1C [Compound 6, N-(2-(1-(2-(3,4-dimethylphenylamino)-2-oxoethyl)-1H-benzo[d]imidazol-2-yl)ethyl)benzamide] | 2.8 ± 0.1 |
| O=C(Cn1c(CCNC(=O)c2cccc(Cl)c2)nc2ccccc21)Nc1ccc2c(c1)CCC2 [Compound 22, 3-chloro-N-(2-(1-(2-((2,3-dihydro-1H-inden-5-yl)amino)-2-oxoethyl)-1H-benzo[d]imidazol-2-yl)ethyl)benzamide] | > 50 |

| SMILES | IC50 [µM] |
| --- | --- |
| CN(CCc1nc2ccccc2n1CC(=O)Nc1ccc2sccc2c1)C(=O)c1ccccc1 [Compound 34, N-(2-(1-(2-(benzo[b]thiophen-5-ylamino)-2-oxoethyl)-1H-benzo[d]imidazol-2-yl)ethyl)-N-methylbenzamide] | 0.6 ± 0.1 |
| COc1ccc2c(c1)nc(CCNC(=O)c1ccccc1)n2CC(=O)Nc1ccc2c(c1)CCC2 [Compound 26, N-(2-(1-(2-((2,3-dihydro-1H-inden-5-yl)amino)-2-oxoethyl)-5-methoxy-1H-benzo[d]imidazol-2-yl)ethyl)benzamide] | > 50 |
| O=C(Cn1c(CCNC(=O)c2ccccc2)nc2ccccc21)Nc1ccc2sccc2c1 [Compound 4, N-(2-(1-(2-(benzo[b]thiophen-5-ylamino)-2-oxoethyl)-1H-benzo[d]imidazol-2-yl)ethyl)benzamide] | 1.3 ± 0.02 |
| COc1ccc2nc(CCNC(=O)c3ccccc3)n(CC(=O)Nc3ccc4c(c3)CCC4)c2c1 [Compound 27, N-(2-(1-(2-((2,3-dihydro-1H-inden-5-yl)amino)-2-oxoethyl)-6-methoxy-1H-benzo[d]imidazol-2-yl)ethyl)benzamide] | > 50 |
| Cc1cccc(C(=O)NCCc2nc3ccccc3n2CC(=O)Nc2ccc3c(c2)CCC3)c1 [Compound 21, N-(2-(1-(2-((2,3-dihydro-1H-inden-5-yl)amino)-2-oxoethyl)-1H-benzo[d]imidazol-2-yl)ethyl)-3-methylbenzamide] | > 50 |
| O=C(Cn1c(CCNC(=O)c2ccccc2)nc2ccccc21)Nc1ccc2c(c1)CCN2 [Compound 10, N-(2-(1-(2-(indolin-5-ylamino)-2-oxoethyl)-1H-benzo[d]imidazol-2-yl)ethyl)benzamide] | > 50 |
| Cc1ccc(NC(=O)Cn2c(CCN(C)C(=O)c3ccccc3)nc3ccccc32)cc1C [Compound 37, N-(2-(1-(2-((3,4-dimethylphenyl)amino)-2-oxoethyl)-1H-benzo[d]imidazol-2-yl)ethyl)-N-methylbenzamide] | 1.6 ± 0.1 |
| Cc1ccc2c(c1)nc(CCNC(=O)c1ccccc1)n2CC(=O)Nc1ccc2c(c1)CCC2 [Compound 25, N-(2-(1-(2-((2,3-dihydro-1H-inden-5-yl)amino)-2-oxoethyl)-5-methyl-1H-benzo[d]imidazol-2-yl)ethyl)benzamide] | 4.6 ± 1.9 |
| O=C(Cn1c(CCNC(=O)c2ccccc2)nc2ccccc21)Nc1ccc2c(c1)C(O)CC2 (centres unmarked) [Compound 9, N-(2-(1-(2-((3-hydroxy-2,3-dihydro-1H-inden-5-yl)amino)-2-oxoethyl)-1H-benzo[d]imidazol-2-yl)ethyl)benzamide] | 35.2 ± 9.1 |
| O=C(Cn1c(CCNC(=O)c2ccccc2)nc2cc(Cl)ccc21)Nc1ccc2c(c1)CCC2 [Compound 23, N-(2-(5-chloro-1-(2-((2,3-dihydro-1H-inden-5-yl)amino)-2-oxoethyl) -1H-benzo[d]imidazol-2-yl)ethyl)benzamide] | 1.3 ± 0.1 |
| O=C(Cn1c(CCNC(=O)c2ccccc2)nc2ccccc21)Nc1ccc2ccccc2c1 [Compound 5, N-(2-(1-(2-(naphthalen-2-ylamino)-2-oxoethyl)-1H-benzo[d]imidazol-2-yl)ethyl)benzamide] | 1.6 ± 1.3 |
| O=C(Cn1c(CCNC(=O)c2ccccc2)nc2ccccc21)Nc1ccc2occc2c1 [Compound 7, N-(2-(1-(2-(benzofuran-5-ylamino)-2-oxoethyl)-1H-benzo[d]imidazol-2-yl)ethyl)benzamide] | 3.3 ± 0.9 |
| O=C(Cn1c(CCNC(=O)c2ccc(Cl)c(Cl)c2)nc2ccccc21)Nc1ccc2c(c1)CCC2 [Compound 19, 3,4-dichloro-N-(2-(1-(2-((2,3-dihydro-1H-inden-5-yl)amino)-2-oxoethyl)-1H-benzo[d]imidazol-2-yl)ethyl)benzamide] | > 50 |
| Cc1cccc2c1nc(CCNC(=O)c1ccccc1)n2CC(=O)Nc1ccc2c(c1)CCC2 [Compound 28, N-(2-(1-(2-((2,3-dihydro-1H-inden-5-yl)amino)-2-oxoethyl)-4-methyl-1H-benzo[d]imidazol-2-yl)ethyl)benzamide] | > 50 |
| CC(C)c1cccc(NC(=O)Cn2c(CCN(C)C(=O)c3ccccc3)nc3ccccc32)c1 [Compound 33, N-(2-(1-(2-((3-isopropylphenyl)amino)-2-oxoethyl)-1H-benzo[d]imidazol-2-yl)ethyl)-N-methylbenzamide] | 0.3 ± 0.01 |
| O=C(Cn1c(CCNC(=O)c2ccccc2)nc2ccccc21)Nc1ccc2[nH]ccc2c1 [Compound 14, N-(2-(1-(2-(1H-indol-5-ylamino)-2-oxoethyl)-1H-benzo[d]imidazol-2-yl)ethyl)benzamide] | > 50 |
| O=C(Cn1c(CCNC(=O)c2cccc3ccccc23)nc2ccccc21)Nc1ccc2c(c1)CCC2 [Compound 15, N-(2-(1-(2-((2,3-dihydro-1H-inden-5-yl)amino)-2-oxoethyl)-1H-benzo[d]imidazol-2-yl)ethyl)-1-naphthamide] | 3.4 ± 0.2 |

tested on: HCT116 cells; assay: Uptake of MDP-rhodamine by HCT116 cells (fluorescence microscopy); assay type: cell-based, human; conditions: GSK669 up to 20 μM, chlorpromazine 20 μM, 1–4 hour
Method: HCT116 cells seeded onto glass cover-slips at low density were pre-treated with GSK669 or the endocytosis inhibitor chlorpromazine for 30 minutes before addition of 2.5 μg/mL MDP-rhodamine. Live cells were viewed periodically over 6-hours incubation at 37 °C using a Nikon eclipse TE2000-E fluorescent inverted microscope fitted with a CCTV camera and rhodamine filter.

| SMILES | effect on uptake of Rhodamine-MDP into cells |
| --- | --- |
| CN(C)CCCN1c2ccccc2Sc2ccc(Cl)cc21 [chlorpromazine, reference compound] | intracellular punctate fluorescence did not develop |
